Results as given in article PMC5312080 (mBio, 2017).
In brackets after ≈: the same amount, converted by molar mass. Several values for one entry are separate records, joined by “and”; a condition that tells them apart may be missing. Equal entries are not always repeated.

test system: DG70-resistant mutants of H37Rv; test: not given; assay type: cell-based, Mycobacterium tuberculosis; settings: not given

Question: What does the source list for `COc1ccc(-c2cc(NC(=O)c3ccc(F)cc3Cl)ccc2OC)cc1` [DG70, 2-chloro-N-(4',6-dimethoxy-[1,1'-biphenyl]-3-yl)-4-fluorobenzamide]?
Answer: DG70 MIC90: >80 µg/mL and 40 µg/mL; MIC in Mtb P3 V20A: >80 µg/mL; MIC in Mtb P7 F118L: 40 µg/mL (≈ 104 µM)

Question: Which results are given for `COc1ccc(-c2cccc(NC(=O)c3ccc(F)cc3Cl)c2)cc1` [JSF-2907]?
Answer: MIC in Mtb P3 V20A: >80 µg/mL; MIC in Mtb P7 F118L: >80 µg/mL

Question: `COc1ccc(-c2cc(NC(=O)c3ccccc3Cl)ccc2OC)cc1` [JSF-2908] was tested. Which “MIC in Mtb P3 V20A” value did it give?
Answer: >40 µg/mL

Question: And the “MIC in Mtb P7 F118L” value?
Answer: >40 µg/mL

Question: Which “MIC in Mtb P3 V20A” value does the source give for `COc1ccc(-c2cc(NC(=O)c3ccc(F)cc3)ccc2OC)cc1` [JSF-2909] here?
Answer: >80 µg/mL

Question: And the “MIC in Mtb P7 F118L” value?
Answer: >80 µg/mL

Question: `O=C(Nc1cccc(-c2ccccc2)c1)c1ccc(F)cc1Cl` [JSF-2910] was tested. Which “MIC in Mtb P3 V20A” value did it give?
Answer: >40 µg/mL

Question: What about the “MIC in Mtb P7 F118L” value of the same compound?
Answer: >40 µg/mL

Question: Which results are given for `COc1ccc(-c2cc(NC(=O)c3ccccc3)ccc2OC)cc1` [JSF-2912]?
Answer: MIC in Mtb P3 V20A: >40 µg/mL; MIC in Mtb P7 F118L: >40 µg/mL

Question: How did the “MIC in Mtb P3 V20A” value turn out when `COc1ccc(NC(=O)c2ccc(F)cc2Cl)cc1` [JSF-2926] was run?
Answer: 40 µg/mL (≈ 143 µM)

Question: What about the “MIC in Mtb P7 F118L” value of the same compound?
Answer: 40 µg/mL (≈ 143 µM)

Question: `COc1ccc(-c2cc(N(C)C(=O)c3ccc(F)cc3Cl)ccc2OC)cc1` [JSF-2949] was tested. Which “MIC in Mtb P3 V20A” value did it give?
Answer: >40 µg/mL

Question: And the “MIC in Mtb P7 F118L” value?
Answer: >40 µg/mL

Question: What does the source list for `O=C(Nc1ccc(O)c(-c2ccc(O)cc2)c1)c1ccc(F)cc1Cl` [JSF-2950]?
Answer: MIC in Mtb P3 V20A: >40 µg/mL; MIC in Mtb P7 F118L: >40 µg/mL

Question: With `COc1ccc(-c2cc(NCc3ccc(F)cc3Cl)ccc2OC)cc1` [JSF-2951] as the compound, how does the “MIC in Mtb P3 V20A” value read?
Answer: >80 µg/mL

Question: What about the “MIC in Mtb P7 F118L” value of the same compound?
Answer: >80 µg/mL

Question: Which results are given for `COc1ccc(NC(=O)c2ccc(F)cc2Cl)cc1-c1ccccc1` [JSF-2971]?
Answer: MIC in Mtb P3 V20A: 40 µg/mL (≈ 112 µM); MIC in Mtb P7 F118L: 40 µg/mL (≈ 112 µM)

test system: clinical drug-susceptible and drug-resistant M. tuberculosis strains; test: microbe, parasite or virus in culture; assay type: cell-based; settings: Mycobacterium tuberculosis

Question: For `COc1ccc(-c2cc(NC(=O)c3ccc(F)cc3Cl)ccc2OC)cc1` [DG70, 2-chloro-N-(4',6-dimethoxy-[1,1'-biphenyl]-3-yl)-4-fluorobenzamide], which MIC is on record?
Answer: 1.2 to 9.6 µg/mL (≈ 3.11 to 24.9 µM)

same assay, conditions: Mycobacterium tuberculosis, H37RV

Question: With `NNC(=O)c1ccncc1` [INH, isoniazid] as the compound, how does the MIC90 read?
Answer: 0.05 µg/mL (≈ 0.365 µM)

same assay, conditions: Mycobacterium tuberculosis, H37RV; read-out: MIC90

Question: For `COc1ccc(-c2cc(NC(=O)c3ccc(F)cc3Cl)ccc2OC)cc1` [DG70, 2-chloro-N-(4',6-dimethoxy-[1,1'-biphenyl]-3-yl)-4-fluorobenzamide], which MIC90 is on record?
Answer: 4.8 µg/mL (≈ 12.4 µM)
